Read-outs that look alike come from different tables or passages of the source.
Tests used:
[1] = target: 5-HT2B(h) (Homo sapiens, UniProt P41595); assay: Off-target radioligand binding screen; conditions: read-out: 5-HT2B(h) (#): inhibition of radioligand binding
[2] = Pharmacokinetic analysis of Nec-1f in mice (tissue PK); assay type: in vivo, C57BL/6 mice; conditions: for concentration at 120 min: sample collection 120 min
[3] = sample collection 240 min, individual mice
[4] = sample collection 360 min, individual mice
[5] = sample collection 480 min, individual mice
[6] = sample collection 1440 min, individual mice

Chain of 5-HT2B(h) (P41595 whole entry): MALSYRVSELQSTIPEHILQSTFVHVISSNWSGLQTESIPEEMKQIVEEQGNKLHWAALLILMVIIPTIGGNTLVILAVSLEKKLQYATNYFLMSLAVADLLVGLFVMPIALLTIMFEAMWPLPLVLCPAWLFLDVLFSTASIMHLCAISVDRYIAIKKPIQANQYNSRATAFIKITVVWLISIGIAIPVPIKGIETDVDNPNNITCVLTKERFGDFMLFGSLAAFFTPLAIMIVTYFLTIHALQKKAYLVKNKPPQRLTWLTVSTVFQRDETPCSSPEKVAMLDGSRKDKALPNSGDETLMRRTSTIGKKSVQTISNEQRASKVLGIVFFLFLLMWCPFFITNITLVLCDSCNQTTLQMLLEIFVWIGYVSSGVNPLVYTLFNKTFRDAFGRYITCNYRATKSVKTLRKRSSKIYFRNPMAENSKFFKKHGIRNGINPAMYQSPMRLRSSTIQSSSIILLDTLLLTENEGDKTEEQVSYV

## CN1C(=O)C(Cc2c[nH]c3c(Cl)cccc23)NC1=S (stereo not drawn) [Nec-1f]
[1]
  inhibition at 10 µM: 16.7%
[2]; [3]
  concentration in blood: 0 µg/mL
  concentration in lung: 0 µg/mL
[2]; [4]
  concentration in blood: 0 µg/mL
  concentration in lung: 0 µg/mL
[2]; [5]
  concentration in blood: 0 µg/mL
  concentration in lung: 0 µg/mL
[2]; [6]
  concentration in blood: 0 µg/mL
  concentration in lung: 0 µg/mL
[2]; brain, sample collection 240 min, individual mice
  concentration in brain: 0 µg/mL
[2]; brain, sample collection 360 min, individual mice
  concentration in brain: 0 µg/mL
[2]; brain, sample collection 480 min, individual mice
  concentration in brain: 0 µg/mL
[2]; brain, sample collection 1440 min, individual mice
  concentration in brain: 0 µg/mL
[2]; heart, sample collection 0 min, individual mice
  concentration in heart: 0 µg/mL
[2]; heart, sample collection 240 min, individual mice
  concentration in heart: 0 µg/mL
[2]; heart, sample collection 360 min, individual mice
  concentration in heart: 0 µg/mL
[2]; heart, sample collection 480 min, individual mice
  concentration in heart: 0 µg/mL
[2]; heart, sample collection 1440 min, individual mice
  concentration in heart: 0 µg/mL
[2]; kidney, sample collection 0 min, individual mice
  concentration in kidney: 0 µg/mL
[2]; kidney, sample collection 240 min, individual mice
  concentration in kidney: 0 µg/mL
[2]; kidney, sample collection 360 min, individual mice
  concentration in kidney: 0 µg/mL
[2]; kidney, sample collection 480 min, individual mice
  concentration in kidney: 0 µg/mL
[2]; kidney, sample collection 1440 min, individual mice
  concentration in kidney: 0 µg/mL
[2]; liver, sample collection 0 min, individual mice
  concentration in liver: 0 µg/mL
[2]; liver, sample collection 240 min, individual mice
  concentration in liver: 0 µg/mL
[2]; liver, sample collection 360 min, individual mice
  concentration in liver: 0 µg/mL
[2]; liver, sample collection 480 min, individual mice
  concentration in liver: 0 µg/mL
[2]; liver, sample collection 1440 min, individual mice
  concentration in liver: 0 µg/mL
[2]; sample collection 0 min, individual mice
  concentration in lung: 0 µg/mL
[2]; male, C57BL/6, mouse, brain, intraperitoneal, 2 mg/kg, brain, sample collection 240 min, individual mice, read-out: concentration in brain
  concentration at 240 min: 0 µg/mL
[2]; male, C57BL/6, mouse, brain, intraperitoneal, 2 mg/kg, brain, sample collection 360 min, individual mice, read-out: concentration in brain
  concentration at 360 min: 0 µg/mL
[2]; male, C57BL/6, mouse, brain, intraperitoneal, 2 mg/kg, brain, sample collection 480 min, individual mice, read-out: concentration in brain
  concentration at 480 min: 0 µg/mL
[2]; male, C57BL/6, mouse, brain, intraperitoneal, 2 mg/ml, brain, sample collection 0 min, individual mice, read-out: concentration in brain
  concentration at 0 min: 0 µg/mL
[2]; male, C57BL/6, mouse, brain, intraperitoneal, 2 mg/ml, brain, sample collection 5 min, individual mice, read-out: concentration in brain
  concentration at 5 min: 0.011 µg/mL
[2]; male, C57BL/6, mouse, brain, intraperitoneal, 2 mg/ml, brain, sample collection 15 min, individual mice, read-out: concentration in brain
  concentration at 15 min: 0.023 µg/mL
[2]; male, C57BL/6, mouse, brain, intraperitoneal, 2 mg/ml, brain, individual mice, read-out: concentration in brain
  concentration at 120 min: 0.011 µg/mL
[2]; male, C57BL/6, mouse, brain, intraperitoneal, 2 mg/ml, brain, sample collection 1440 min, individual mice, read-out: concentration in brain
  concentration at 1440 min: 0 µg/mL
[2]; male, C57BL/6, mouse, heart, intraperitoneal, 2 mg/kg, heart, sample collection 240 min, individual mice, read-out: concentration in heart
  concentration at 240 min: 0 µg/mL
[2]; male, C57BL/6, mouse, heart, intraperitoneal, 2 mg/kg, heart, sample collection 360 min, individual mice, read-out: concentration in heart
  concentration at 360 min: 0 µg/mL
[2]; male, C57BL/6, mouse, heart, intraperitoneal, 2 mg/kg, heart, sample collection 480 min, individual mice, read-out: concentration in heart
  concentration at 480 min: 0 µg/mL
[2]; male, C57BL/6, mouse, heart, intraperitoneal, 2 mg/kg, heart, sample collection 1440 min, individual mice, read-out: concentration in heart
  concentration at 1440 min: 0 µg/mL
[2]; male, C57BL/6, mouse, heart, intraperitoneal, heart, sample collection 0 min, individual mice, read-out: concentration in heart
  concentration at 0 min: 0 µg/mL
[2]; male, C57BL/6, mouse, heart, intraperitoneal, heart, individual mice, read-out: concentration in heart
  concentration at 120 min: 0 µg/mL
[2]; male, C57BL/6, mouse, kidney, intraperitoneal, 2 mg/kg, kidney, sample collection 240 min, individual mice, read-out: concentration in kidney
  concentration at 240 min: 0 µg/mL
[2]; male, C57BL/6, mouse, kidney, intraperitoneal, 2 mg/kg, kidney, sample collection 360 min, individual mice, read-out: concentration in kidney
  concentration at 360 min: 0 µg/mL
[2]; male, C57BL/6, mouse, kidney, intraperitoneal, 2 mg/kg, kidney, sample collection 480 min, individual mice, read-out: concentration in kidney
  concentration at 480 min: 0 µg/mL
[2]; male, C57BL/6, mouse, kidney, intraperitoneal, 2 mg/kg, kidney, sample collection 1440 min, individual mice, read-out: concentration in kidney
  concentration at 1440 min: 0 µg/mL
[2]; male, C57BL/6, mouse, kidney, intraperitoneal, 2 mg/ml, kidney, sample collection 0 min, individual mice, read-out: concentration in kidney
  concentration at 0 min: 0 µg/mL
[2]; male, C57BL/6, mouse, kidney, intraperitoneal, 2 mg/ml, kidney, individual mice, read-out: concentration in kidney
  concentration at 120 min: 0 µg/mL
[2]; male, C57BL/6, mouse, kidney, intraperitoneal, 2 mg/ml, sample collection 30 min, individual mice
  concentration at 30 min: 0.051 µg/mL
[2]; male, C57BL/6, mouse, kidney, ip, mice, single i.p. injection 2 mg/kg
  half-life: 3.52 h
[2]; male, C57BL/6, mouse, liver, intraperitoneal, 2 mg/kg, liver, sample collection 240 min, individual mice, read-out: concentration in liver
  concentration at 240 min: 0 µg/mL
[2]; male, C57BL/6, mouse, liver, intraperitoneal, 2 mg/kg, liver, sample collection 360 min, individual mice, read-out: concentration in liver
  concentration at 360 min: 0 µg/mL
[2]; male, C57BL/6, mouse, liver, intraperitoneal, 2 mg/kg, liver, sample collection 480 min, individual mice, read-out: concentration in liver
  concentration at 480 min: 0 µg/mL
